Measurements published in publication PMC4170623, “A novel class I HDAC inhibitor, MPT0G030, induces cell apoptosis and differentiation in human colorectal cancer cells via HDAC1/PKCδ and E-cadherin” (Oncotarget, 2014).
Where two headings read alike, the source gives them in different places. Blank lines part the entries; values can stand above or below the compound they belong to.

How the values were obtained:
A549 = assay: Sulforhodamine B (SRB) growth inhibition assay; assay type: cell-based, human; settings: A549, ± SE
Procedure: (§1) Cells were inoculated into 96-well plates in growth medium. After 24 h, cells were fixed with 10% trichloroacetic acid (TCA), to represent a measurement of the cell population at the time of drug addition (Tz). After incubation with vehicle (0.1% DMSO) or different concentrations of compound for 48 h (Tt), cells were fixed with 10% TCA and stained with 0.4% SRB. After staining, unbound SRB was removed by 1% acetic acid. Bound SRB was solubilized with 10 mM trizma base and the absorbance was measured at 515 nm. Percentage of growth inhibition was calculated as: 100−[(Tt-Tz)/(C-Tz)] ×100. Tt represents absorbance of compound-treated group, and C means absorbance of vehicle-treated group.

HCT116 = assay: Sulforhodamine B (SRB) growth inhibition assay; assay type: cell-based, human; settings: HCT116, ± SE
Procedure: as §1

HT-29 cells [1] = assay: Sulforhodamine B (SRB) growth inhibition assay; assay type: cell-based, human
Procedure: as §1

Hep3B = assay: Sulforhodamine B (SRB) growth inhibition assay; assay type: cell-based, human; settings: ± SE
Procedure: as §1

[2] = test system: total HDACs in HT-29 cells; assay: Fluorometric HDAC activity assay, total HDACs in cell lysates; settings: read-out: IC50 inhibition of total HDACs, HT-29 cells treated 24 h
HT-29 cells [3] = test system: HT-29 cells; set-up: method as in PMID 10200307; settings: cited from earlier work
HT-29 cells [4] = assay: MTT cell viability assay; assay type: cell-based; settings: Homo sapiens, 24 h, read-out: IC50 (cell death, MTT)
Procedure: Cells were seeded in 96-well plates in growth medium overnight. Cells were treated with vehicle (0.1% DMSO) or different concentrations of compound for 24 h, then incubated with MTT reagent at 37°C for 1 h. After incubation, the insoluble formazan produced in living cells. The formazan crystals were dissolved with DMSO and the absorbance was measured at 550 nm.

HT-29 tumor xenograft = HT-29 tumor xenograft model; assay type: in vivo, athymic nude mice; settings: 100 or 200 mg/kg qd by gavage, 18 days
Procedure: Tumor volumes were calculated using caliper measurements twice per week using the formula volume (mm^3) = (length × width^2)/2. Body weights were measured daily during the first week and twice per week thereafter. […] The protocols of the in vivo study were approved by the Animal Care and User Committee at National Taiwan University.

PC3 = assay: Sulforhodamine B (SRB) growth inhibition assay; assay type: cell-based; settings: Homo sapiens, PC-3; PC3, ± SE
Procedure: as §1, with “Bound SRB was solubilized with 10 mM trizma base and the absorbance was measured at 515 nm.” left out

HUVEC cells = assay: MTT cell viability assay in normal cells; assay type: cell-based, human; settings: 24 h
HT-29 cells [5] = assay: Cell death detection ELISA (DNA fragmentation); assay type: cell-based, human; settings: 24 h, compared with SAHA
Procedure: Cell Death Detection ELISA Kit (Roche Diagnostics, Switzerland) was used to analyze drug-induced apoptosis. […] Adherent cells were collected and the assay was performed according to the manufacturer's protocol.

HDAC1 = HDAC1 (Homo sapiens, UniProt Q13547); assay: Fluorometric HDAC activity assay, recombinant isoform
HDAC2 = HDAC2 (Homo sapiens, UniProt Q92769); assay: as above
HDAC8 = molecular target: T1, HDAC8 (Homo sapiens, UniProt Q9BY41); assay: as above
T1 sequence (Q9BY41 1-377): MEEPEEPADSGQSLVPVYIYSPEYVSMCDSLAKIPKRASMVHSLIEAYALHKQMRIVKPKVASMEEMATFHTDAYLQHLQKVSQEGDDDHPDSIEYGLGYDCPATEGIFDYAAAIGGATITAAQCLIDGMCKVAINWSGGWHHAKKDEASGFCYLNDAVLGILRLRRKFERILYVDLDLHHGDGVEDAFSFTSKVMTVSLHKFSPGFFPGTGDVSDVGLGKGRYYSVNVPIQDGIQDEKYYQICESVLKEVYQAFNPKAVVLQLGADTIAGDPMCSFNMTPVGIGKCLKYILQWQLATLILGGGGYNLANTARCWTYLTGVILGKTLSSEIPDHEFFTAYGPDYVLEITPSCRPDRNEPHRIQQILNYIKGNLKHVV

HDAC4 = HDAC4 (Homo sapiens, UniProt P56524); assay: as above
HDAC5 = HDAC5 (Homo sapiens, UniProt Q9UQL6); assay: as above
HDAC7 = molecular target: T2, HDAC7 (Homo sapiens, UniProt Q8WUI4); assay: as above
T2 sequence (Q8WUI4 1-952): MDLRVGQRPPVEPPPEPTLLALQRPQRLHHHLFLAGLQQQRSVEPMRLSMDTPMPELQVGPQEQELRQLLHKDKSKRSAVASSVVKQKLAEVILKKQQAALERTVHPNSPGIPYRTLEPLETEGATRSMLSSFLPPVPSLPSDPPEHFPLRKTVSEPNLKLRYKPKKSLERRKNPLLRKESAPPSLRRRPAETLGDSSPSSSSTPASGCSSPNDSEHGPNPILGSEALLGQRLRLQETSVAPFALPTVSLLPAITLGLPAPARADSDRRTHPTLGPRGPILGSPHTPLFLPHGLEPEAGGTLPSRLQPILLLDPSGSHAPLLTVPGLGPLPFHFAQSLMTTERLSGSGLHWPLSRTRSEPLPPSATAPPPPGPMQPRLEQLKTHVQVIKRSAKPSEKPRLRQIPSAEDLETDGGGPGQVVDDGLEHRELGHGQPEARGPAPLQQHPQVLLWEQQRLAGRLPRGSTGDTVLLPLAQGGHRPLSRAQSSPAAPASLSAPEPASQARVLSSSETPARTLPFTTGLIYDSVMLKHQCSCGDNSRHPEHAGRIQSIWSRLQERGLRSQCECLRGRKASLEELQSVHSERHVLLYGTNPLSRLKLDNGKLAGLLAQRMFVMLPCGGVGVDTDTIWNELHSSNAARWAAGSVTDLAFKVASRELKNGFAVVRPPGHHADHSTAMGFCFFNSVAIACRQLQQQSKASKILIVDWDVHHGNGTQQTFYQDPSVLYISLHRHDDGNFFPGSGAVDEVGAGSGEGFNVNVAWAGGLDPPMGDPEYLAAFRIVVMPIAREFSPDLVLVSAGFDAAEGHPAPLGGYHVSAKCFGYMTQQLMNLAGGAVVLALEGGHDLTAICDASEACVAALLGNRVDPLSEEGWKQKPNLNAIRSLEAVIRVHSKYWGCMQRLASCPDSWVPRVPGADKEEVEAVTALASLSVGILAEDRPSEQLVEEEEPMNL

HDAC9 = HDAC9 (Homo sapiens, UniProt Q9UKV0); assay: as above
HDAC6 = molecular target: T3, HDAC6 (Homo sapiens, UniProt Q9UBN7); assay: as above
T3 sequence (Q9UBN7 1-1215): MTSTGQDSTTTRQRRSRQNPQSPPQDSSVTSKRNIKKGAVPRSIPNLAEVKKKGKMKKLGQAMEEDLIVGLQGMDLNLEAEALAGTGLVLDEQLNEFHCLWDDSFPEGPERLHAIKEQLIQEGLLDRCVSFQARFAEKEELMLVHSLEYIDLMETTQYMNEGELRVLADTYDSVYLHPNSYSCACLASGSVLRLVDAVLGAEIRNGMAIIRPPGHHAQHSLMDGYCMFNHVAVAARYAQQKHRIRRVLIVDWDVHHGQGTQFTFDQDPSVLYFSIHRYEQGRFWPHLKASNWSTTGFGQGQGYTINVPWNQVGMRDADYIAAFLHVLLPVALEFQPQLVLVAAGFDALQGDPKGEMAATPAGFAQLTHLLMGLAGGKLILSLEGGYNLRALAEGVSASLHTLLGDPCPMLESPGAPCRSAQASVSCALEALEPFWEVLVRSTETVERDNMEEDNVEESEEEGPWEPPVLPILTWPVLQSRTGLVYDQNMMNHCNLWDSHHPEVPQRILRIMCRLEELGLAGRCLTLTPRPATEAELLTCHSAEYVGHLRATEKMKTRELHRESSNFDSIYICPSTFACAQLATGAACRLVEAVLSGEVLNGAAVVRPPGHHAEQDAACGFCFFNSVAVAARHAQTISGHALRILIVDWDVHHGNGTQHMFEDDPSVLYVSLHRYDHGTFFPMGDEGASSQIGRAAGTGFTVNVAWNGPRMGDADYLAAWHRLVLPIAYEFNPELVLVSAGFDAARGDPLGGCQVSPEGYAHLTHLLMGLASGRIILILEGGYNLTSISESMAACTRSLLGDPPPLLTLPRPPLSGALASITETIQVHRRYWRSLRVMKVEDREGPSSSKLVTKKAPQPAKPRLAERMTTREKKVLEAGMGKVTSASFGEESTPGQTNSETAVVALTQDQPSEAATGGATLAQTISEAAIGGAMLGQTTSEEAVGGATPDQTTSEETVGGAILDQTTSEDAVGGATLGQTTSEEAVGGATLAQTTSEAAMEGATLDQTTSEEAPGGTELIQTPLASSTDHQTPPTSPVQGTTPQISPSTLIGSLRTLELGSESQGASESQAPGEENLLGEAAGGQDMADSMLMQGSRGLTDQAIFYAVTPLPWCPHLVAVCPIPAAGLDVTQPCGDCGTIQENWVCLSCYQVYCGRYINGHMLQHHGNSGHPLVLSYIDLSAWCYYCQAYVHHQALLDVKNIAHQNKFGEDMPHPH

Sequence of HDAC2 (Q92769 whole entry): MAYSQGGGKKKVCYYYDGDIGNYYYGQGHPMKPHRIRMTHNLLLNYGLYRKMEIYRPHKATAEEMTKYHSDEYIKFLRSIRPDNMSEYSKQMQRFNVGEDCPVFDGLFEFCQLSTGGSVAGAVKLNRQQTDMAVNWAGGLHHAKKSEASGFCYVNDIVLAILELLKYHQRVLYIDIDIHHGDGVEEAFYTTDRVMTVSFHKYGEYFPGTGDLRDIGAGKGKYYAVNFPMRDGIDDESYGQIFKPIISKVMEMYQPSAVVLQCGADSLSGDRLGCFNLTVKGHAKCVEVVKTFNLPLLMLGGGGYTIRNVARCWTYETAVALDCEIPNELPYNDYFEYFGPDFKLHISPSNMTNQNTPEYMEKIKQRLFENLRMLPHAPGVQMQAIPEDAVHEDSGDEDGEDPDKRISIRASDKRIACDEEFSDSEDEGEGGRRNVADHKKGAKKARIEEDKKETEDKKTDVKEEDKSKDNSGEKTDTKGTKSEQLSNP
Sequence of HDAC5 (Q9UQL6 whole entry): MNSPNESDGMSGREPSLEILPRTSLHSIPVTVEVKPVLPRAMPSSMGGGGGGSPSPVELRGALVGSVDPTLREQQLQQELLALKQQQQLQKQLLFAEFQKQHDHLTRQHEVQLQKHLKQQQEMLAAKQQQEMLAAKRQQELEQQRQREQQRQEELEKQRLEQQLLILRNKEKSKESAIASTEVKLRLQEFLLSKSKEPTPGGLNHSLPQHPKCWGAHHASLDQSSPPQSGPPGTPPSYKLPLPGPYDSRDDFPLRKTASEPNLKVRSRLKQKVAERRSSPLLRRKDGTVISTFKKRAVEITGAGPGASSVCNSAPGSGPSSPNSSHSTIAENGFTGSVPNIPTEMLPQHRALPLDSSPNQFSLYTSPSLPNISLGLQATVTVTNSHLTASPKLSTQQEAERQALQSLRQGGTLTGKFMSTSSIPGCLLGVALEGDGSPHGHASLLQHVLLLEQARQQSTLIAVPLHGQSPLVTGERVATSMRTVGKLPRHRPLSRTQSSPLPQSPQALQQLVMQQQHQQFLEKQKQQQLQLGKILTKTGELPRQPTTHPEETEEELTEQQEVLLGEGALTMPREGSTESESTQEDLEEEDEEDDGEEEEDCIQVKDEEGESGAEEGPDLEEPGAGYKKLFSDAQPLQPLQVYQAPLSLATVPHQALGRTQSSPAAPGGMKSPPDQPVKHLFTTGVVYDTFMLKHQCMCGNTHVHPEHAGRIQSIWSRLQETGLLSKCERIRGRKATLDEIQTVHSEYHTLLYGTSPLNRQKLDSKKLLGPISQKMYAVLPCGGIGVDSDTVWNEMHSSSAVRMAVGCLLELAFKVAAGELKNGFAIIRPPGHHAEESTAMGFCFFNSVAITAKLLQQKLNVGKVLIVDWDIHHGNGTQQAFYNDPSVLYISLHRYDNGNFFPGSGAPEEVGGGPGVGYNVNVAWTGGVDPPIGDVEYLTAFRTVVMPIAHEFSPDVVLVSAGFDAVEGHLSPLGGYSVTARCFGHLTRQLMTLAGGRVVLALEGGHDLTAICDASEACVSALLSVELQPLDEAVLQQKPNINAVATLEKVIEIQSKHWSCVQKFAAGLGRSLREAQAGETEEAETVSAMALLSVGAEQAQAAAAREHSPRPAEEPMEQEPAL
Sequence of HDAC1 (Q13547 whole entry, canonical isoform): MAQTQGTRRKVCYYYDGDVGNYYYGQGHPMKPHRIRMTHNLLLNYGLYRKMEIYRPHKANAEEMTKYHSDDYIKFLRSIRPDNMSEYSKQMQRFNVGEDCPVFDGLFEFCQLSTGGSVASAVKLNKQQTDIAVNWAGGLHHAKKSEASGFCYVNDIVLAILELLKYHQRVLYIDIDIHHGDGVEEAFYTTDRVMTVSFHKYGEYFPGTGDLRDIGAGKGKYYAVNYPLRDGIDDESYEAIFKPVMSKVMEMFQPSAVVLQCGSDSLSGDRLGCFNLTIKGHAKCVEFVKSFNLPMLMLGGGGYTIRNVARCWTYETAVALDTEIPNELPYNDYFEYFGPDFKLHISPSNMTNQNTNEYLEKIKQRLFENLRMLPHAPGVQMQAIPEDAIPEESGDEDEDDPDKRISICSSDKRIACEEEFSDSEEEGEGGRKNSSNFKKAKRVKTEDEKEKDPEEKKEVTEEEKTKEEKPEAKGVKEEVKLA
Sequence of HDAC9 (Q9UKV0 whole entry): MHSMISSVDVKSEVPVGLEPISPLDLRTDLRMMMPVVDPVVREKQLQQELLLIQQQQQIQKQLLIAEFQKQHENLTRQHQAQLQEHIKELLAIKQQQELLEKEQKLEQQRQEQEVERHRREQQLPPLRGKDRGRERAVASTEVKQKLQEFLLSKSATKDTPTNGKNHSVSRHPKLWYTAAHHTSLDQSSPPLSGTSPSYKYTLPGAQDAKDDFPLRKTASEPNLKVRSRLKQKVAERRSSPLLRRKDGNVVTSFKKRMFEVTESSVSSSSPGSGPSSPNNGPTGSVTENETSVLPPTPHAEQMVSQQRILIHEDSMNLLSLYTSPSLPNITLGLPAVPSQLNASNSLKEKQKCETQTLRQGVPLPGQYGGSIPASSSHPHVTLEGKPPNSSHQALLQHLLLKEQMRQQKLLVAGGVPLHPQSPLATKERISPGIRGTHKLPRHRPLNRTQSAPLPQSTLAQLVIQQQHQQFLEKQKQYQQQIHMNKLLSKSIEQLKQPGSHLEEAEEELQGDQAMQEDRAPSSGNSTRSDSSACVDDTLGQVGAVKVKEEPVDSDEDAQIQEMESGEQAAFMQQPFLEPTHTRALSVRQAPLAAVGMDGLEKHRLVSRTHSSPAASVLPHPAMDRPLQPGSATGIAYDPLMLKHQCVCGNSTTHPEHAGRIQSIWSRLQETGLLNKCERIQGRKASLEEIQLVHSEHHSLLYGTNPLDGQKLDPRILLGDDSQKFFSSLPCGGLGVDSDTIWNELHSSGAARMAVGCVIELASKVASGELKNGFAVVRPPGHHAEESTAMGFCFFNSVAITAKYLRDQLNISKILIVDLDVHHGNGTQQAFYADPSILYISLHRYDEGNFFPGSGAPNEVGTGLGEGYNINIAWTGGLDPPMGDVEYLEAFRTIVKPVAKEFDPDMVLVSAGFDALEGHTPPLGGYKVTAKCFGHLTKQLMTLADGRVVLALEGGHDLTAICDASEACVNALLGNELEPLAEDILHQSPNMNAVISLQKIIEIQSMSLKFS
Sequence of HDAC4 (P56524 whole entry): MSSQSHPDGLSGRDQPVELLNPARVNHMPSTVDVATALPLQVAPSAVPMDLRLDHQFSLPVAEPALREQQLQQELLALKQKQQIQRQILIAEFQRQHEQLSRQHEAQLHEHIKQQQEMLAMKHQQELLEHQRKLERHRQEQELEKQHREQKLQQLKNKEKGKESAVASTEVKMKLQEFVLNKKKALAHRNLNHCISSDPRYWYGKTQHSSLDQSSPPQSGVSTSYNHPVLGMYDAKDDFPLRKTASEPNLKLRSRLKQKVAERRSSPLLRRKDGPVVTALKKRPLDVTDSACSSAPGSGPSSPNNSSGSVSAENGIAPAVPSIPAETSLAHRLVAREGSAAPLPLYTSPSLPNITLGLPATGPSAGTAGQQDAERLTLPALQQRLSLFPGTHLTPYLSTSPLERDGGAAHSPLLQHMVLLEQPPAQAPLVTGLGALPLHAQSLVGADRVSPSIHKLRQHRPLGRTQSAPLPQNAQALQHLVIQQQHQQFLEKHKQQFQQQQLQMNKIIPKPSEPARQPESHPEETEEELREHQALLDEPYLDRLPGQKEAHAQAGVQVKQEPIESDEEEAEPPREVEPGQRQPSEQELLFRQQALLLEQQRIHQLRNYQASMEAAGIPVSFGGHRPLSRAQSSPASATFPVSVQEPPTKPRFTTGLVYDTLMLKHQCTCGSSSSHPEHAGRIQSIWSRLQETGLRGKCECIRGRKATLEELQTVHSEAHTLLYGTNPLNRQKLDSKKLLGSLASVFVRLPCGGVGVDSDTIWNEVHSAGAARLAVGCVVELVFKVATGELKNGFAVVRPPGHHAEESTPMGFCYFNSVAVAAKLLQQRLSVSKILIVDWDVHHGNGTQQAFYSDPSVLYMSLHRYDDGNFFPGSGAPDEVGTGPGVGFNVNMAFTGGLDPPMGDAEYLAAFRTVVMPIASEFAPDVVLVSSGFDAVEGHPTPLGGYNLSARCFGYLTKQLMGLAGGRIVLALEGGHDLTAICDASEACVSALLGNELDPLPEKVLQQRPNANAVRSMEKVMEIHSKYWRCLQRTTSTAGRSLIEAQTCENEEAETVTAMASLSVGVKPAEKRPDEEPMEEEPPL

SMILES: O=C(CCCCCCC(=O)Nc1ccccc1)NO [SAHA, suberanilohydroxamic acid, reference compound]
GI50 (A549): 2620 ± 1370 nM | GI50 (HCT116): 440 ± 30 nM | GI50 (HT-29 cells [1]; 48 h): 920 ± 50 nM | GI50 (Hep3B): 950 ± 40 nM | IC50 [2]: 29600 ± 2620 nM

SMILES: Nc1ccccc1NC(=O)c1ccc(CNC(=O)OCc2cccnc2)cc1 [entinostat]
GI50 (HT-29 cells [3]): 1290 nM

GI50 (A549; Homo sapiens): 180 ± 10 nM | GI50 (HCT116; Homo sapiens, HCT-116): 110 ± 20 nM | GI50 (HT-29 cells [1]; Homo sapiens, HT-29, 48 h): 145 ± 10 nM | GI50 (Hep3B; Homo sapiens): 140 ± 10 nM | GI50 (PC3): 170 ± 10 nM | IC50 (HDAC1): 75.1 ± 4.65 nM | Ratio: fold x IC50 relative to HDAC1 isoform (HDAC1; HDAC1): 1 | IC50 (HDAC2): 242 ± 47.6 nM | Ratio: fold x IC50 relative to HDAC1 isoform (HDAC2; HDAC2): 3.22 | IC50 (HDAC8): 3340 ± 130 nM | Ratio: fold x IC50 relative to HDAC1 isoform (HDAC8; HDAC8): 44.55 | IC50 (HDAC4): > 10000 nM | IC50 (HDAC5): > 5000 nM | Ratio: fold x IC50 relative to HDAC1 isoform (HDAC5; HDAC5): >60 | IC50 (HDAC7): > 10000 nM | Ratio: fold x IC50 relative to HDAC1 isoform (HDAC7; HDAC7): >130 | IC50 (HDAC9): > 10000 nM | Ratio: fold x IC50 relative to HDAC1 isoform (HDAC9; HDAC9): >130 | IC50 (HDAC6): 4368 ± 42.1 nM | HDAC6 IC50 of MPT0G030 as fold x IC50 of SAHA (HDAC6; HDAC6): > 55 fold | Ratio: fold x IC50 relative to HDAC1 isoform (HDAC6; HDAC6): 58.19 | IC50 [2]: 6450 ± 1390 nM
SMILES: COc1ccc(S(=O)(=O)N2CCc3cc(C=CC(=O)NO)cc(N)c32)cc1 [MPT0G030, 3-[7-amino-1-(4-methoxy-benzenesulfonyl)-2,3-dihydro-1H-indol-5-yl]-N-hydroxy-acrylamide]
IC50 (HT-29 cells [4]): 985 ± 60 nM | Body weight (HT-29 tumor xenograft): not affected | IC50 in normal (HUVEC) cells relative to IC50 in HT-29 cells (HUVEC cells): about thirty times higher | Induction of cell apoptosis (cytoplasmic histone-associated DNA fragments) (HT-29 cells [5]): more effective on inducing cell apoptosis
